In patent US5198462A, “Heterocyclic amine, derivatives, their production and use” (Takeda Chemical Industries, Ltd., priority 1990, dated 1993):

Target: T1, Acyl-CoA:cholesterol transferase (ACAT) (Rattus norvegicus, UniProt Q7TQM4)
T1 construct: prepared from the microsomal fraction of mucosal cells from the small intestines of 6-week old Sprague-Dawley rats; from tissue; host or cells: microsomal fraction of small-intestinal mucosal cells, Sprague-Dawley rats
T1 sequence (Q7TQM4 1-524): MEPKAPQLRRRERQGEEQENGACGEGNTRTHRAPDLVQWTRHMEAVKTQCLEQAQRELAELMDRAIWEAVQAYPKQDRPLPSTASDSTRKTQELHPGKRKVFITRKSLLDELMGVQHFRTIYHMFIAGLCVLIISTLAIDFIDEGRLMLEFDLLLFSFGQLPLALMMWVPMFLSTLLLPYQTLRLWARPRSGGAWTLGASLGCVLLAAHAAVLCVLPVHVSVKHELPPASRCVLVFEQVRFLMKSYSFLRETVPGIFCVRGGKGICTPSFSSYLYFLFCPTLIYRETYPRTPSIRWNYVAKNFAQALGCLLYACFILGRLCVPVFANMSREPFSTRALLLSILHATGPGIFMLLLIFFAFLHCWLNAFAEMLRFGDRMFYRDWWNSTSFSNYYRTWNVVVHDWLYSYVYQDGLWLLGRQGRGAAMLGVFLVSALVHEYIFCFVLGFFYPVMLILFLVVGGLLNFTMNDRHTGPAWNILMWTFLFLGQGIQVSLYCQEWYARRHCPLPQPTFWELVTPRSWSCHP
Test: Acyl-CoA:cholesterol transferase (ACAT)-inhibiting action
Type: biochemical, Sprague-Dawley rats
Conditions: 10^-6 M; microsomal fraction of mucosal cells from rat small intestines; labeled cholesterol ester formed from [1-14C]oleyl-CoA; read-out: ACAT inhibiting rate (%) 10^-6 M
Procedure: The enzyme specimen ACAT was prepared from the microsomal fraction of mucosal cells from the small intestines of 6-week old Sprague-Dawley rats fasted for 20 hours, in accordance with the method described by Heider, et al. on Journal of Lipid Research, Vol. 24, p. 1127 (1982).
The activity of ACAT was calculated by determining the amount of labeled cholesterol ester formed from [1-^14 C]oleyl-CoA and endogenous cholesterol.
In Table 1, the inhibition rate (%) of formation of labeled cholesterol ester by the addition of test compounds (representing the compounds obtained by the following Working Examples 1 to 31) in an amount of 10^-6 M is shown as the index of the action of inhibiting ACAT.

Going from `COc1ccccc1-c1c(NC(=O)NC2CCCCC2)oc(=O)c2ccccc12` [Example 19, N-[4-(2-Methoxyphenyl)isocoumarin-3-yl]-N'-cyclohexylurea] to `CCOC(=O)CNC(=O)Nc1oc(=O)c2ccccc2c1-c1ccccc1OC` [Example 20, N-[4-(2-Methoxyphenyl)isocoumarin-3-yl]-N'-ethoxycarbonyl-methylurea], the inhibition at 1 µM falls from 97.7% to 88.7%.

Going from `COc1ccccc1-c1c(NC(=O)Nc2ccc(F)cc2F)oc(=O)c2ccccc12` [Example 15, N-[4-(2-Methoxyphenyl)isocoumarin-3-yl]-N'-(2,4difluorophenyl)urea] to `O=C(Nc1ccc(F)cc1F)Nc1oc(=O)c2ccccc2c1-c1ccccc1` [Example 12, N-(4-Phenylisocoumarin-3-yl)-N'-(2,4-difluorophenyl)urea], the inhibition at 1 µM falls from 99.4% to 94.2%.

Compared with `Cc1ccc2c(=O)oc(NC(=O)Nc3ccc(F)cc3F)c(-c3ccc(F)cc3)c2c1` [Example 10, N-[4-(4-Fluorophenyl)-6-methylisocoumarin-3-yl]-N'-(2,4-difluorophenyl)urea], `O=C(Nc1ccc(F)cc1F)Nc1oc(=O)c2ccc(F)cc2c1-c1ccc(F)cc1` [Example 16, N-[6-Fluoro-4-(4-fluorophenyl)isocoumarin-3-yl]-N'-(2,4-difluorophenyl)urea] is lower in inhibition at 1 µM: 98.5% for the first, 60.2% for the second.

Going from `O=C(Nc1ccc(F)cc1F)Nc1oc(=O)c2cc(Cl)ccc2c1-c1ccccc1` [Example 9, N-(7-Chloro-4-phenylisocoumarin-3-yl)-N'-(2,4-difluorophenyl)urea] to `O=C(Nc1ccc(F)cc1F)Nc1oc(=O)c2ccc(Cl)cc2c1-c1ccccc1` [Example 1, N-(6-Chloro-4-phenylisocoumarin-3-yl)-N'-(2,4-difluorophenyl)urea], the inhibition at 1 µM rises from 89.8% to 98%.

Compared with `CC(C)(C)OC(=O)Nc1oc(=O)c2ccc(Cl)cc2c1-c1ccccc1` [Example 2, t-Butyl N-(6-chloro-4-phenylisocoumarin-3-yl) carbamate], `CC(=O)Oc1c(C)cc(NC(=O)Nc2oc(=O)c3ccc(Cl)cc3c2-c2ccccc2)cc1C` [Example 13, N-(6-Chloro-4-phenylisocoumarin-3-yl)-N'-(4-acetoxy-3,5-dimethylphenyl)urea] is higher in inhibition at 1 µM: 76.1% for the first, 95.8% for the second.

Going from `O=C(Nc1ccc(F)cc1F)Nc1oc(=O)c2ccccc2c1-c1ccc(F)cc1` [Example 11, N-[4-(4-Fluorophenyl)isocoumarin-3-yl]-N'-(2,4-difluorophenyl)urea] to `CC(=O)Oc1c(C)cc(NC(=O)Nc2oc(=O)c3ccc(F)cc3c2-c2ccc(F)cc2)cc1C` [Example 17, N-[6-Fluoro-4-(4-fluorophenyl)isocoumarin-3-yl]-N'-(4-acetoxy-3,5-dimethylphenyl)urea], the inhibition at 1 µM falls from 92.1% to 65.7%.

Going from `COc1ccccc1C1=C(NC(=O)Nc2ccc(N(C)C)cc2)SCc2ccccc21` [Example 28, N-(4-Dimethylaminophenyl)-N'-[4-(2-methoxyphenyl)-1H-2-benzothiopyran-3-yl]urea] to `COc1ccccc1C1=C(NC(=O)Nc2cc(C)c(OC(C)=O)c(C)c2)SCc2ccccc21` [Example 27, N-(4-Acetoxy-3,5-dimethylphenyl)-N'-[4-(2-methoxyphenyl)-1H-2-benzothiopyran-3-yl]urea], the inhibition at 1 µM rises from 92% to 99.3%.

Going from `Cc1cc2c(-c3ccccc3C)c(NC(=O)Nc3ccc(F)cc3F)n(C)c(=O)c2cc1C` [Example 8, N-[1,2-Dihydro-4-(2-methylphenyl)-2,6,7-trimethyl-1-oxoisoquinolin-3-yl]-N'-(2,4-difluorophenyl)urea] to `Cn1c(NC(=O)Nc2ccc(F)cc2F)c(-c2cc(C(C)(C)C)c(O)c(C(C)(C)C)c2)c2ccccc2c1=O` [Example 23, N-[4-(3,5-Di-t-butyl-4-hydroxyphenyl)-1,2-dihydro-2-methyl-1-oxoisoquinolin-3-yl-]-N'-(2,4-difluorophenyl)urea], the inhibition at 1 µM falls from 64.9% to 54.3%.

Going from `CC(=O)Oc1c(C)cc(NC(=O)NC2=C(c3ccccc3)c3ccccc3CS2)cc1C` [Example 26, N-(4-acetoxy-3,5-dimethylphenyl)-N'-(4-phenyl-1H-2-benzothiopyran-3-yl)urea] to `Cc1cc(NC(=O)NC2=C(c3ccccc3)c3ccccc3CS2)cc(C)c1O` [Example 29, N-(4-Hydroxy-3,5-dimethylphenyl)-N'-(4-phenyl-1H-2-benzothiopyran-3-yl)urea], the inhibition at 1 µM rises from 94.8% to 95.5%.

Going from `CC(=O)Oc1c(C)cc(NC(=O)Nc2oc(=O)c3ccccc3c2-c2ccccc2)cc1C` [Example 18, N-(4-Isocoumarin-3-yl)-N'-(4-acetoxy-3,5-dimethylphenyl)urea] to `COc1ccccc1-c1c(NC(=O)Nc2cc(C)c(OC(C)=O)c(C)c2)oc(=O)c2ccccc12` [Example 14, N-[4-(2-Methoxyphenyl)isocoumarin-3-yl]-N'-(4-acetoxy-3,5-dimethylphenyl)urea], the inhibition at 1 µM rises from 83.2% to 99%.

System: not listed separately
Test: Plasma cholesterol lowering activity in cholesterol fed rat
Type: in vivo, Sprague-Dawley rats
Conditions: dose 0.13 mg/kg/day in diet, 4 days; 1% cholesterol diet; n=5; mean ± standard deviation; *p < 0.05 vs. control (control 191.0 ± 25.6)
Procedure: 7-week old, male Sprague-Dawley rats were fed a 1% cholesterol diet (containing 0.5% cholic acid and 5% olive oil) for three days, and then the rats were grouped according to the plasma cholesterol level (n=5). They were fed with the diet as described above containing test compound for further 4 days. Blood was collected from the rats during 8:30-10:00 am at the fed state, and the plasma cholesterol level was measured enzymatically. The amount of test compound consumed by rats was calculated on the basis of the amount of the diet consumed by the rats.

For `COc1ccccc1-c1c(NC(=O)Nc2ccc(F)cc2F)oc(=O)c2ccccc12` [Example 15, N-[4-(2-Methoxyphenyl)isocoumarin-3-yl]-N'-(2,4difluorophenyl)urea], the “Cholesterol in Serum” value was 125.2 ± 22.6 mg/dL.

Same assay, conditions: dose 0.14 mg/kg/day in diet, 4 days; 1% cholesterol diet; n=5; mean ± standard deviation; *p < 0.05 vs. control (control 191.0 ± 25.6)

For `COc1ccccc1-c1c(NC(=O)Nc2cc(C)c(OC(C)=O)c(C)c2)oc(=O)c2ccccc12` [Example 14, N-[4-(2-Methoxyphenyl)isocoumarin-3-yl]-N'-(4-acetoxy-3,5-dimethylphenyl)urea], the “Cholesterol in Serum” value was 103.4 ± 23.7 mg/dL.
